Test results reported in patent US6130238A, “3-(cyclohexanoheteroarylidenyl)-2-indolinone protein tyrosine kinase inhibitors” (Sugen, Inc., priority 1998, dated 2000).

Key:
[1] = biological target: FAK (Homo sapiens, UniProt Q05397); assay: FAK kinase inhibition; type: biochemical
Description: (§1) IC50 refers to the amount (in micromoles, μM) of compound required to achieve 50% inhibition of the activity of the particular kinase being tested as compared to the activity of an untreated control.

[2] = biological target: T1, LCK (Homo sapiens, UniProt P06239); assay: Biochemical lck Assay--ELISA
T1 construct: made in house; host or cells: Schizosaccharomyces pombe SP200, pRSP expression plasmid
T1 sequence (P06239 whole entry, species assumed): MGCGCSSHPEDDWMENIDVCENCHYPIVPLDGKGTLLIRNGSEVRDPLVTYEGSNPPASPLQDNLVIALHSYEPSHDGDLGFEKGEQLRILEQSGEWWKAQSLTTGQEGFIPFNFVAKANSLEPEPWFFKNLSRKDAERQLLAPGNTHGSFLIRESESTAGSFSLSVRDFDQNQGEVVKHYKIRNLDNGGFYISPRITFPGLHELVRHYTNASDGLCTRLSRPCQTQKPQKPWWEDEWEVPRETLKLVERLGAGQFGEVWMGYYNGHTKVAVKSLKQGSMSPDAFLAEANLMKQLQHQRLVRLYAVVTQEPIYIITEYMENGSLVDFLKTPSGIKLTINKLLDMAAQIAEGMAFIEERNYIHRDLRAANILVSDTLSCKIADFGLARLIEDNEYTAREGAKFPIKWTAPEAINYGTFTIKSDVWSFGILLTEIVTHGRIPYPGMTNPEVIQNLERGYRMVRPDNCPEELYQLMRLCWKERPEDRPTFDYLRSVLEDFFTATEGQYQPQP
Description: as §1
h. Biochemical lck Assay--ELISA
This assay is used to determine lck protein kinase activities measuring phosphorylation of GST-.zeta. as the readout.
a. Yeast transformed with lck. Schizosaccharomyces Pombe is used to express recombinant Lck (Superti-Furga, et al., EMBO J, 12:2625-2634; Superti-Furga, et al., Nature Biotech., 14:600-605). S. Pombe strain SP200 (h-s leul.32 ura4 ade210) is grown as described and transformations with pRSP expression plasmids are done by the lithium acetate method (Superti-Furga, supra). Cells are grown in the presence of 1 μM thiamine […].
a. Preparation of Lck coated ELISA plate.
(§2) c. Kinase assay procedure.
2. Add 0.08 ml Kinase Reaction Mixture per well (containing 10 μl of 10× Kinase Buffer and 2 μg GST-.zeta. per well diluted with water).
(§3) 3. Add 10 μl of compound diluted in water containing 10% DMSO and pre-incubate for 15 minutes at room temperature.
4. Start kinase reaction by adding 10 μl/well of 0.1 mM ATP in water (10 μM ATP final).
5. Shake ELISA plate for 60 min. at room temperature.
14. Develop with Turbo TMB.

[3] = biological target: T2, SRC (Gallus gallus, UniProt P00523); assay: Biochemical src assay--ELISA
T2 construct: made in house; host or cells: Schizosaccharomyces pombe SP200, pRSP expression plasmid; yeast from Courtneidge Laboratory (Sugen)
Description: as §1
g. Biochemical src assay--ELISA
This assay is used to determine src protein kinase activity measuring phosphorylation of a biotinylated peptide as the readout.
h. Anti-src (327) mab: Schizosaccharomyces Pombe is used to express recombinant Src (Superti-Furga, et al., EMBO J., 12:2625-2634; Superti-Furga, et al., […]., 14:600-605). S. Pombe strain SP200 (h-s leul.32 ura4 ade210) is grown as described and transformations are pRSP expression plasmids are done by the lithium acetate method (Superti-Furga, supra). Cells are grown in the presence of 1 μM thiamine to repress expression from the nmtl promoter or in the absence of thiamine to induce expression.
a. Preparation of src coated ELISA plate.
as §2
2. Add 0.08 ml Kinase Reaction Mixture per well (containing 10 μl of 10× Kinase Buffer and 10 μM (final concentration) biotin-EEEYEEYEEEYEEEYEEEY per well diluted in water.
as §3
4. Start kinase reaction by adding 10 μl/well of 0.05 mM ATP in water (5 μM ATP final).
5. Shake ELISA plate for 15 min. at room temperature.
10. […]

[4] = biological target: T3, FLK-1R (Mus musculus, UniProt P35918); assay: FLK-1 receptor kinase activity, cellular ELISA (NIH3T3 C7#3 cells, VEGF stimulated); type: cell-based
T3 construct: expressed in transfected cells; host or cells: NIH3T3 C7#3 cells
T3 sequence (P35918 20-1345): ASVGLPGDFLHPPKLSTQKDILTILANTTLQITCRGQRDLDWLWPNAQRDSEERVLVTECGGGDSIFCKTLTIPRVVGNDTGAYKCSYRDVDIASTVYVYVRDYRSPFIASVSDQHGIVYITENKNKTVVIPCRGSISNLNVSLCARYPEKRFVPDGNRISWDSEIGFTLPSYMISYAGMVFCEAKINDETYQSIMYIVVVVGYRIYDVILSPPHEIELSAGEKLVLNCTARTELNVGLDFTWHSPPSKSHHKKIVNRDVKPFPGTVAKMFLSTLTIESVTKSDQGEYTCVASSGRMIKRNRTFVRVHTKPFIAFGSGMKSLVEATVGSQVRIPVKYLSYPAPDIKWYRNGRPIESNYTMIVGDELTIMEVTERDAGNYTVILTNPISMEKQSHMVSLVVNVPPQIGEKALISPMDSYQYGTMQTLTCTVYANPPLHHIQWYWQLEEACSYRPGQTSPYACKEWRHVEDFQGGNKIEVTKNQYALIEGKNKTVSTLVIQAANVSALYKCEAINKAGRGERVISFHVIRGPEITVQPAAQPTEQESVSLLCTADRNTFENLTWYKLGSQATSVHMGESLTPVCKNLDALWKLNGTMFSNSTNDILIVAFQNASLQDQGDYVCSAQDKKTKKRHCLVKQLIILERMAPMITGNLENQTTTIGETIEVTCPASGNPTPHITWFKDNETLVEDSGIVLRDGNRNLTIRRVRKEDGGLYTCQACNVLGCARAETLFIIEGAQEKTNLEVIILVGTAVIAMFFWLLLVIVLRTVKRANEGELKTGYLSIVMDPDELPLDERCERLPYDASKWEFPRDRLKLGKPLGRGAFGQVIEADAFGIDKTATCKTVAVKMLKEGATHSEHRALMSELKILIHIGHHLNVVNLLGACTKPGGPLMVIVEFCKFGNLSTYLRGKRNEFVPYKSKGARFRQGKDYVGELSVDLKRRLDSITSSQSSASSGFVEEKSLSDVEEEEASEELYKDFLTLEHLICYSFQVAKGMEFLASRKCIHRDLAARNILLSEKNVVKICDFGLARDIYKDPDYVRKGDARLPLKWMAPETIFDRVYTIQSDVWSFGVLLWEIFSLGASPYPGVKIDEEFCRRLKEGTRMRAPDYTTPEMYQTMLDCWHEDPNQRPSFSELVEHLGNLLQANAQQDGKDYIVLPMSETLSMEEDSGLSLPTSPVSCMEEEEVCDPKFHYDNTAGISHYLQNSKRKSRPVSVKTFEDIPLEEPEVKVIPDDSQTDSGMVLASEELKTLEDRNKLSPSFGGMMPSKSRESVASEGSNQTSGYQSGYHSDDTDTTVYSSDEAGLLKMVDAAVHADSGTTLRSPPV

[5] = tested on: PDGFR; assay: PDGF-R ELISA (U1242 cells); type: cell-based
Method: as §1
(§4) The cellular/catalytic assays described herein are performed in an ELISA format. The general procedure is a follows: a compound is introduced to cells expressing the test kinase, either naturally or recombinantly, for some period of time after which, if the test kinase is a receptor, a ligand known to activate the receptor's activity is added. The cells are lysed and the lysate is transferred to the wells of an ELISA plate previously coated with a specific antibody recognizing the substrate of the enzymatic phosphorylation reaction. Non-substrate components of the cell lysate are washed away and the amount of phosphorylation on the substrate is detected with an antibody specifically recognizing phosphotyrosine compared with control cells that were not contacted with a test compound.
All cell culture media, glutamine, and fetal bovine serum can be purchased from Gibco Life Technologies (Grand Island, NY) unless otherwise specified. All cells are grown in a humid atmosphere of 90-95% air and 5-10% CO2 at 37° C. All cell lines are routinely subcultured twice a week and are negative for mycoplasma as determined by the Mycotect method (Gibco). […]

[6] = biological target: T4, EGFR (Homo sapiens, UniProt P00533); assay: EGF Receptor ELISA (NIH 3T3/C7 cells); type: cell-based
T4 construct: expressed in transfected cells; host or cells: NIH 3T3/C7 cell line
T4 sequence (P00533 25-1210): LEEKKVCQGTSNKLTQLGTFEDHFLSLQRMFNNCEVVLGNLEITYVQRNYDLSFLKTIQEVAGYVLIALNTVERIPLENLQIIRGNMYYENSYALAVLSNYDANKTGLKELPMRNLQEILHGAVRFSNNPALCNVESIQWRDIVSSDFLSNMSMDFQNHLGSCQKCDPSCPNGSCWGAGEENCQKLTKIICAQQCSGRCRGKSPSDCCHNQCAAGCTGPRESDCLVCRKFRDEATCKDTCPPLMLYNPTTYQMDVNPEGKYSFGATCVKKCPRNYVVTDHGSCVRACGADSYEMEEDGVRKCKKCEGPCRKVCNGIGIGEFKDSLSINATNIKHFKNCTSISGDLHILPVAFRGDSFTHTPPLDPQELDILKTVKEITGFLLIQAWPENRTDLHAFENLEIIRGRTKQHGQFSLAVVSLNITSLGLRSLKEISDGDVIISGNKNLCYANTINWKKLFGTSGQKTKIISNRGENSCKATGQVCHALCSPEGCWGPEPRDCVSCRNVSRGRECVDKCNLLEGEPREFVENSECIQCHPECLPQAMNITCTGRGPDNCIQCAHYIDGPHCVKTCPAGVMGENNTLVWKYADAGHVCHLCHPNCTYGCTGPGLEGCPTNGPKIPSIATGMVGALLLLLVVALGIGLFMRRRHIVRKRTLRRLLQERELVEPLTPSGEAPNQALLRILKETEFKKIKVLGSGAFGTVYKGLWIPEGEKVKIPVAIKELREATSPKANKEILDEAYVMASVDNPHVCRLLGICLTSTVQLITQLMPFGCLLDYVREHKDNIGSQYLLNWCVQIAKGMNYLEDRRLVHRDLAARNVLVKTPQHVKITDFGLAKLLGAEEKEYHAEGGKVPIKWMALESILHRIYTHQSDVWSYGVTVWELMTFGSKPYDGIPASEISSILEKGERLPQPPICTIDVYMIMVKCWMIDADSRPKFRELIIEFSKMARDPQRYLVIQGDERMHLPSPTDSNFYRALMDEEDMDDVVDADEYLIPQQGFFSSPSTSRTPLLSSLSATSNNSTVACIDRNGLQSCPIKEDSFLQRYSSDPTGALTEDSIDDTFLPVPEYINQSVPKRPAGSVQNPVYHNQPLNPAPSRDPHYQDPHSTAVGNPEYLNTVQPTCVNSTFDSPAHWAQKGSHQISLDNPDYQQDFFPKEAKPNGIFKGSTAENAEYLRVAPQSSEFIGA
Method: as §1, §4
EGF Receptor kinase activity in cells genetically engineered to express human EGF-R can be measured as described below:
1. […]
12. The maximal phosphotyrosine signal is determined by subtracting the value of the negative controls from the positive controls. The percent inhibition of phosphotyrosine content for extract-containing wells is then calculated, after subtraction of the negative controls.

[7] = tested on: HUV-EC-C cells; assay: HUV-EC-C Assay, aFGF (3H-thymidine incorporation); type: cell-based, human; conditions: read-out: HUV-EC-C (ATCC) aFGF
Description: as §1
(§5) The cellular/biologic assays described herein measure the amount of DNA made in response to activation of a test kinase, which is a general measure of a proliferative response. The general procedure for this assay is as follows: a compound is introduced to cells expressing the test kinase, either naturally or recombinantly, for some period of time after which, if the test kinase is a receptor, a ligand known to activate the receptor's activity is added. After incubation at least overnight, a DNA labeling reagent such as Bromodeoxy-uridine (BrdU) or 3H-thymidine is added. The amount of labeled DNA is detected with either an anti-BrdU antibody or by measuring radioactivity and is compared to control cells not contacted with a test compound.
(§6) The following protocol may also be used to measure a compound's activity against PDGF-R, FGF-R, VEGF, aFGF or Flk-1/KDR, all of which are naturally expressed by HUV-EC cells.
1. […]

[8] = tested on: HUV-EC-C cells; assay: HUV-EC-C Assay, VEGF (3H-thymidine incorporation); type: cell-based, human; conditions: read-out: HUV-EC-C (ATCC) VEGF
Description: as §1, §5, §6
1. […]

FAK, sequence (Q05397 whole entry, species assumed): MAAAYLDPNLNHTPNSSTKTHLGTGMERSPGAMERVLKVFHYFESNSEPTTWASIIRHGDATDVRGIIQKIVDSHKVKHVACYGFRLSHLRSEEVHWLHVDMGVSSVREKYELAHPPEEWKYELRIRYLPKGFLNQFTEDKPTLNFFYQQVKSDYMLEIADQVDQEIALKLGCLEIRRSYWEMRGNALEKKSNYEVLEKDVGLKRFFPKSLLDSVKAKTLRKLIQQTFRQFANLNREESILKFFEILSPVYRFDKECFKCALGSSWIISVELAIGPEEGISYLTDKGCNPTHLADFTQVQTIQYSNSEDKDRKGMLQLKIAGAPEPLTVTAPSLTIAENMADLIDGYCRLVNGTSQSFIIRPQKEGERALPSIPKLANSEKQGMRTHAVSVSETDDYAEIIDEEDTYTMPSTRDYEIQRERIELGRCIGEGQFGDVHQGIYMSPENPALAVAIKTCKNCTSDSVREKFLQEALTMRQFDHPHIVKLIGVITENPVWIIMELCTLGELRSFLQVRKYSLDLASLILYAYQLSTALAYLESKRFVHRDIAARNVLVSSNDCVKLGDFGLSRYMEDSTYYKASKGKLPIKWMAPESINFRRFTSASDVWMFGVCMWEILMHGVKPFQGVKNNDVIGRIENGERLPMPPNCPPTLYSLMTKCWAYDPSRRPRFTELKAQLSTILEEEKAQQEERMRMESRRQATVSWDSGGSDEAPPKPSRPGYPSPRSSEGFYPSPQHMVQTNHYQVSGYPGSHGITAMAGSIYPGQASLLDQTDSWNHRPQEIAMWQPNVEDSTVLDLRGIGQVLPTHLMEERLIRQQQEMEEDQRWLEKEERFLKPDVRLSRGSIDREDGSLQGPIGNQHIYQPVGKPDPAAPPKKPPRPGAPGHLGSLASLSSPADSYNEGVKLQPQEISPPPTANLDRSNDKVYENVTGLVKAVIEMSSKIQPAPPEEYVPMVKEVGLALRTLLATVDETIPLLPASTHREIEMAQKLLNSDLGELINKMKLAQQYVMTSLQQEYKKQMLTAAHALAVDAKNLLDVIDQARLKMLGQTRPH

| SMILES | IC50 [1] | IC50 [2] | IC50 [3] | IC50 [4] | IC50 [5] | IC50 [6] | IC50 ([7]; Homo sapiens) | IC50 [7] | IC50 ([8]; Homo sapiens) | IC50 [8] |
| --- | --- | --- | --- | --- | --- | --- | --- | --- | --- | --- |
| CN(C)S(=O)(=O)c1ccc2c(c1)C(=CC1=CC3=C(CCCC3)C1)C(=O)N2 [3-(4,5,6,7-tetrahydroinden-2-methyldenyl)-5-[N,N-dimethylaminosulfonyl]2-indolinone] | > 10000 nM | 500 nM | 100 nM | > 100000 nM | > 100000 nM | > 100000 nM |  |  |  |  |
| NS(=O)(=O)c1ccc2c(c1)C(=CC1=CC3=C(CCCC3)C1)C(=O)N2 [3-(4,5,6,7-tetrahydroinden-2-methylidenyl)-5-[aminosulfonyl]-2-indolinone] | > 10000 nM | 700 nM | 800 nM | > 100000 nM | 1000 nM | > 100000 nM | 2400 nM | 3300 nM | 650 nM | 1070 nM |
